In general, IC50 refers to the concentration that gives 50% inhibition.

Experimental findings from ChEMBL document CHEMBL4725248, “Machine Learning on DNA-Encoded Libraries: A New Paradigm for Hit Finding” (J Med Chem, 2020) are described below.

The target of experiment [1] is T1, Bifunctional epoxide hydrolase 2 (Homo sapiens, UniProt P34913).
T1 sequence (P34913 whole entry): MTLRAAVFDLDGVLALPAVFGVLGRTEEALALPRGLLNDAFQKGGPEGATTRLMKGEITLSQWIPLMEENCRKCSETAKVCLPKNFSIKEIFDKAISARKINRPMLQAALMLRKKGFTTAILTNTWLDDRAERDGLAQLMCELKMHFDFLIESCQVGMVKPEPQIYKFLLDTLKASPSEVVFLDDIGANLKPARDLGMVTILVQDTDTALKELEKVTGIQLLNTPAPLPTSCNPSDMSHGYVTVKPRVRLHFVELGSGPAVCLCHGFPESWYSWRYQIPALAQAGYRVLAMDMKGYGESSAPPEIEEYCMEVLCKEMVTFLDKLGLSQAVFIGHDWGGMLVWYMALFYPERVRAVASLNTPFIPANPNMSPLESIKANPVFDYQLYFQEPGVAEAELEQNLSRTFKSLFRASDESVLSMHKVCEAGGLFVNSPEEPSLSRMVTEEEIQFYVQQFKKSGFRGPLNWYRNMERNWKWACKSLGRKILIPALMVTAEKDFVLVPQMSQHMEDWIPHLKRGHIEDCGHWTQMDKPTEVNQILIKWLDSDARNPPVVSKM
As to the kind of experiment: Inhibition of His-tagged human recombinant soluble epoxide hydrolase pre-incubated for 15 mins before Epoxy-fluor7 substrate addition and measured after 20 mins by fluorescence based assay.

The target of experiment [2] is Mast/stem cell growth factor receptor Kit (Homo sapiens, UniProt P10721). As to the kind of experiment: Inhibition of recombinant c-Kit (unknown origin) incubated for 1 hr by ADP-Glo assay. In general terms: ADP-Glo first removes unused ATP, then detects ADP through luciferase.
The target of experiment [3] is T2, Estrogen receptor (Homo sapiens, UniProt P03372).
T2 sequence (P03372 whole entry): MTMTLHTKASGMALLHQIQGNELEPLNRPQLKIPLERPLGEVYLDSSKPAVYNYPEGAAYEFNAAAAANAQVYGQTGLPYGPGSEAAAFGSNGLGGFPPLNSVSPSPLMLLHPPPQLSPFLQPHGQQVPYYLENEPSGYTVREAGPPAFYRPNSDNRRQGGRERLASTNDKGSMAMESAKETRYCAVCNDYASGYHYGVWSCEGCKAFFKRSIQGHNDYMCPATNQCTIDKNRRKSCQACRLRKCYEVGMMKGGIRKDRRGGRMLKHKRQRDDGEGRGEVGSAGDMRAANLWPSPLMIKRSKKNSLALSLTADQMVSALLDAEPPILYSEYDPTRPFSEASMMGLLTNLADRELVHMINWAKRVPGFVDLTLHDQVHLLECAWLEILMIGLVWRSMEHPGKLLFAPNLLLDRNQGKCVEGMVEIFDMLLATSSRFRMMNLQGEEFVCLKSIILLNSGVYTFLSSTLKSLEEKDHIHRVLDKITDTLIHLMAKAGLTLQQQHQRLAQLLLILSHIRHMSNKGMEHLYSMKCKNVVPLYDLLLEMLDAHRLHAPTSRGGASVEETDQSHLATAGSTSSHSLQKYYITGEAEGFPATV
The experiment is described as follows: Inhibition of His-tagged human ERalpha pre-incubated for 15 mins before fluorescent ligand addition and measured after 1 hr by fluorescence polarization assay.

Chain of Mast/stem cell growth factor receptor Kit (P10721 whole entry): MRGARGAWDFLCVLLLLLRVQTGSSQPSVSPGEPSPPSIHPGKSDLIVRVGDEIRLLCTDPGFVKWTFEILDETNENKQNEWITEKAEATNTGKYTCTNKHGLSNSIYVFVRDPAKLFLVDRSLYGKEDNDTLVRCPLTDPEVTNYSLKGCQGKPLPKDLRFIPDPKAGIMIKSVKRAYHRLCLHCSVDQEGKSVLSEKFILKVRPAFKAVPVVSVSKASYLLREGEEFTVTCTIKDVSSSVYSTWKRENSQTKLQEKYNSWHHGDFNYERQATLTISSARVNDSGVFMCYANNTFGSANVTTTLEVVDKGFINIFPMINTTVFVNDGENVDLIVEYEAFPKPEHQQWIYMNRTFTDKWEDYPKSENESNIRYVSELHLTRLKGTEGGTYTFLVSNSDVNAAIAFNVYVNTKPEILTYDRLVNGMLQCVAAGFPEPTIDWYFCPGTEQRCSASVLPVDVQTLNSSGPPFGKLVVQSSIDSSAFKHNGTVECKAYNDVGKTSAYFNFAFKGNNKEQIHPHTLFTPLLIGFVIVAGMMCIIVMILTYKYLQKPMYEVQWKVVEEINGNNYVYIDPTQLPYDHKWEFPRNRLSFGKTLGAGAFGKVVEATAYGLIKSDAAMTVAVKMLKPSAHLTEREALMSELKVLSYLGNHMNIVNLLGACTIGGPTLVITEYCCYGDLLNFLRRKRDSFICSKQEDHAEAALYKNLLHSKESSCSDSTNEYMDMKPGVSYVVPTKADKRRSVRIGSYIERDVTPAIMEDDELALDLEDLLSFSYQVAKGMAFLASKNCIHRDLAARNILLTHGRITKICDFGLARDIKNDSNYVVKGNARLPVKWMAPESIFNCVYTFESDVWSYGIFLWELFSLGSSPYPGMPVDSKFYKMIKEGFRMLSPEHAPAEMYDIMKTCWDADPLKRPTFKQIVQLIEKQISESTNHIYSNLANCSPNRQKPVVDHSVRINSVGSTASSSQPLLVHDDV

In the case of `O=C(NC1CCC2CCCC2C1)C1CCCN(S(=O)(=O)c2cccs2)C1` (stereo unspecified), in experiment [1], the IC50 came to 2 nM.
For the molecule `CC(C)COC(=O)N1CCN(C(=O)C=CC(=O)Nc2ccc(Cl)cc2)CC1`, in experiment [2], the IC50 was 21 nM.
Turning to `Cc1ccccc1C(OC(c1ccccc1C)c1ccccc1C)c1ccccc1C`, the IC50 in experiment [3] stood at 8 nM.
As to `O=C(Nc1ccc(Sc2ccccc2Cl)cc1)C1CCN(C(=O)c2ccc(F)cc2)CC1`, the IC50 in experiment [1] is 1 nM.
The molecule `CN1c2ccccc2C2(C)CCCC3Cc4cc(Br)cc(Br)c4OC312` (stereo unspecified) had a half-inhibitory concentration (IC50) in experiment [3] of 20 nM.
As for `CC(OC(=O)c1ccc2nc(N)sc2c1)C(=O)Nc1ccc(C(C)(C)C)cc1` (stereo unspecified), the IC50 in experiment [2] turned out to be 9 nM.
